Source: ChEMBL document CHEMBL4190322, “Structure-based development of novel triazoles and related thiazolotriazoles as anticancer agents and Cdc25A/B phosphatase inhibitors. Synthesis, in vitro biological evaluation, molecular docking and in silico ADME-T studies” (Eur J Med Chem, 2017)
The source made the active and inactive calls. The rule behind the calls is not given here.

What was measured:
Type in all cases: functional
A498 = assay: Growth inhibition of human A498 cells at 10 uM after 48 hrs by SRB assay relative to control; settings: A498, 48 h, read-out: GI
RPMI-8226 = assay: Growth inhibition of human RPMI8226 cells at 10 uM after 48 hrs by SRB assay relative to control; settings: RPMI-8226, 48 h, read-out: GI
HOP-92 = assay: Growth inhibition of human HOP92 cells at 10 uM after 48 hrs by SRB assay relative to control; settings: HOP-92, 48 h, read-out: GI
NCI-H226 = assay: Growth inhibition of human NCI-H226 cells at 10 uM after 48 hrs by SRB assay relative to control; settings: NCI-H226, 48 h, read-out: GI
CCRF-CEM = assay: Growth inhibition of human CCRF-CEM cells at 10 uM after 48 hrs by SRB assay relative to control; settings: read-out: GI
MOLT-4 = assay: Growth inhibition of human MOLT4 cells at 10 uM after 48 hrs by SRB assay relative to control; settings: MOLT-4, 48 h, read-out: GI
A549 = assay: Growth inhibition of human A549 cells at 10 uM after 48 hrs by SRB assay relative to control; settings: A549, 48 h, read-out: GI
HCT-116 = assay: Growth inhibition of human HCT116 cells at 10 uM after 48 hrs by SRB assay relative to control; settings: HCT-116, 48 h, read-out: GI
RXF 393 = assay: Growth inhibition of human RXF393 cells at 10 uM after 48 hrs by SRB assay relative to control
SR = assay: Growth inhibition of human SR cells at 10 uM after 48 hrs by SRB assay relative to control; settings: read-out: GI
PC-3 = assay: Growth inhibition of human PC3 cells at 10 uM after 48 hrs by SRB assay relative to control; settings: PC-3, 48 h, read-out: GI
U-251 = assay: Growth inhibition of human U251 cells at 10 uM after 48 hrs by SRB assay relative to control; settings: U-251, 48 h, read-out: GI
UO-31 = assay: Growth inhibition of human UO31 cells at 10 uM after 48 hrs by SRB assay relative to control; settings: UO-31, 48 h, read-out: GI
SNB-75 = assay: Growth inhibition of human SNB75 cells at 10 uM after 48 hrs by SRB assay relative to control; settings: SNB-75, 48 h, read-out: GI
HL-60 = assay: Growth inhibition of human HL60 cells at 10 uM after 48 hrs by SRB assay relative to control
MDA-MB-468 = assay: Growth inhibition of human MDA-MB-468 cells at 10 uM after 48 hrs by SRB assay relative to control
OVCAR-8 = assay: Growth inhibition of human OVCAR8 cells at 10 uM after 48 hrs by SRB assay relative to control
Hs-578T = assay: Growth inhibition of human Hs 578T cells at 10 uM after 48 hrs by SRB assay relative to control; settings: read-out: GI
NCI-H522 = assay: Growth inhibition of human NCI-H522 cells at 10 uM after 48 hrs by SRB assay relative to control; settings: NCI-H522, 48 h, read-out: GI
SK-OV-3 = assay: Growth inhibition of human SKOV3 cells at 10 uM after 48 hrs by SRB assay relative to control; settings: SK-OV-3, 48 h, read-out: GI
HOP-62 = assay: Growth inhibition of human HOP62 cells at 10 uM after 48 hrs by SRB assay relative to control; settings: HOP-62, 48 h, read-out: GI
SNB-19 = assay: Growth inhibition of human SNB19 cells at 10 uM after 48 hrs by SRB assay relative to control
786-0 = assay: Growth inhibition of human 786-0 cells at 10 uM after 48 hrs by SRB assay relative to control
CAKI-1 = assay: Growth inhibition of human Caki1 cells at 10 uM after 48 hrs by SRB assay relative to control; settings: CAKI-1, 48 h, read-out: GI
K562 = assay: Growth inhibition of human K562 cells at 10 uM after 48 hrs by SRB assay relative to control; settings: K562, 48 h, read-out: GI
NCI/ADR-RES = assay: Growth inhibition of human NCI/ADR-RES cells at 10 uM after 48 hrs by SRB assay relative to control; settings: read-out: GI
UACC-257 = assay: Growth inhibition of human UACC257 cells at 10 uM after 48 hrs by SRB assay relative to control
MCF7 = assay: Growth inhibition of human MCF7 cells at 10 uM after 48 hrs by SRB assay relative to control; settings: MCF7, 48 h, read-out: GI
SK-MEL-5 = assay: Growth inhibition of human SK-MEL-5 cells at 10 uM after 48 hrs by SRB assay relative to control; settings: SK-MEL-5, 48 h, read-out: GI
SF-268 = assay: Growth inhibition of human SF268 cells at 10 uM after 48 hrs by SRB assay relative to control; settings: SF-268, 48 h, read-out: GI
LOX IMVI = assay: Growth inhibition of human LOXIMVI cells at 10 uM after 48 hrs by SRB assay relative to control; settings: read-out: GI
HT-29 = assay: Growth inhibition of human HT-29 cells at 10 uM after 48 hrs by SRB assay relative to control
KM12 = assay: Growth inhibition of human KM12 cells at 10 uM after 48 hrs by SRB assay relative to control; settings: KM12, 48 h, read-out: GI
NCI-H322M = assay: Growth inhibition of human NCI-H322M cells at 10 uM after 48 hrs by SRB assay relative to control; settings: read-out: GI
UACC-62 = assay: Growth inhibition of human UACC62 cells at 10 uM after 48 hrs by SRB assay relative to control; settings: UACC-62, 48 h, read-out: GI
NCI-H23 = assay: Growth inhibition of human NCI-H23 cells at 10 uM after 48 hrs by SRB assay relative to control; settings: NCI-H23, 48 h, read-out: GI
SK-MEL-2 = assay: Growth inhibition of human SK-MEL-2 cells at 10 uM after 48 hrs by SRB assay relative to control; settings: SK-MEL-2, 48 h, read-out: GI
OVCAR-3 = assay: Growth inhibition of human OVCAR3 cells at 10 uM after 48 hrs by SRB assay relative to control; settings: OVCAR-3, 48 h, read-out: GI
Malme-3M = assay: Growth inhibition of human MALME-3M cells at 10 uM after 48 hrs by SRB assay relative to control
OVCAR-4 = assay: Growth inhibition of human OVCAR4 cells at 10 uM after 48 hrs by SRB assay relative to control; settings: OVCAR-4, 48 h, read-out: GI

## COc1ccc(Cc2nnc3sc(SCC(=O)c4ccc(Cl)cc4)nn23)cc1
A498
  inhibition of growth at 10 µM: 35.4%
RPMI-8226
  inhibition of growth at 10 µM: 8.67%
HOP-92
  inhibition of growth at 10 µM: 32%
NCI-H226
  inhibition of growth at 10 µM: 2%
CCRF-CEM
  inhibition of growth at 10 µM: 12.2%
MOLT-4
  inhibition of growth at 10 µM: 7.83%
A549
  inhibition of growth at 10 µM: 1.3%
HCT-116
  inhibition of growth at 10 µM: 4%
RXF 393
  growth inhibition (GI): inactive
SR
  inhibition of growth at 10 µM: 13.2%
PC-3
  inhibition of growth at 10 µM: 25.8%
U-251
  inhibition of growth at 10 µM: 8.78%
UO-31
  inhibition of growth at 10 µM: 22.3%
SNB-75
  inhibition of growth at 10 µM: 21.8%
HL-60
  growth inhibition (GI): inactive
MDA-MB-468
  growth inhibition (GI): inactive
OVCAR-8
  growth inhibition (GI): inactive
Hs-578T
  inhibition of growth at 10 µM: 2.07%
NCI-H522
  inhibition of growth at 10 µM: 17.7%
SK-OV-3
  inhibition of growth at 10 µM: 11.2%
HOP-62
  inhibition of growth at 10 µM: 7.5%
SNB-19
  growth inhibition (GI): inactive
786-0
  growth inhibition (GI): inactive
CAKI-1
  inhibition of growth at 10 µM: 17.5%
K562
  inhibition of growth at 10 µM: 10%
NCI/ADR-RES
  inhibition of growth at 10 µM: 5.12%
UACC-257
  growth inhibition (GI): inactive
MCF7
  inhibition of growth at 10 µM: 6.24%
SK-MEL-5
  inhibition of growth at 10 µM: 2.05%
SF-268
  inhibition of growth at 10 µM: 5%
LOX IMVI
  inhibition of growth at 10 µM: 9%
HT-29
  growth inhibition (GI): inactive
KM12
  inhibition of growth at 10 µM: 5.4%
NCI-H322M
  inhibition of growth at 10 µM: 6.27%
UACC-62
  inhibition of growth at 10 µM: 1.72%
NCI-H23
  inhibition of growth at 10 µM: 10.7%
SK-MEL-2
  inhibition of growth at 10 µM: 10%
OVCAR-3
  inhibition of growth at 10 µM: 3.88%
Malme-3M
  growth inhibition (GI): inactive
OVCAR-4
  inhibition of growth at 10 µM: 2.26%
